{
  "source": "paper PMC5911928",
  "about": "(European journal of medicinal chemistry, 2017)",
  "key": {"[1]": {"assay": "Human microsomal stability analysis", "type": "in vitro ADME", "conditions": "human liver microsomes"}, "B. subtilis [2]": {"test_system": "B. subtilis", "assay": "MIC against B. subtilis", "type": "cell-based", "conditions": "Bacillus subtilis"}, "MRSA USA300": {"test_system": "MRSA USA300", "assay": "In vivo antibacterial activity in MRSA-infected C. elegans", "parameters": "species or system Caenorhabditis elegans", "conditions": "for reduction of the burden of MRSA USA300: C. elegans AU37, 20 μg/mL, 18 hours treatment"}, "[3]": {"test_system": "UDP-N-acetylmuramyl pentapeptide in S. aureus NRS107 (RN4220)", "assay": "Detection of final soluble cell wall precursor by HPLC/MS", "type": "cell-based, Staphylococcus aureus", "conditions": "10 × MIC, 30 minutes"}, "[4]": {"test_system": "MRSA USA400 inside infected murine macrophage (J774) cells", "assay": "Eradication of intracellular MRSA in infected macrophages", "conditions": "16 μg/mL, J774 cells infected with MRSA USA400"}, "B. subtilis [5]": {"test_system": "B. subtilis", "assay": "Bacterial Cytological Profiling", "type": "cell-based, Bacillus subtilis", "conditions": "for cell shape (BCP) in media containing MSM: LB-MSM, two hours, 4i 4 × MIC, oxacillin 5×MIC, D-cycloserine 1×MIC"}, "[6]": {"test_system": "S. aureus NRS107 (RN4220)", "assay": "microbe, parasite or virus in culture", "type": "cell-based", "conditions": "Staphylococcus aureus"}, "VRSA4": {"test_system": "VRSA4", "assay": "MIC/MBC broth microdilution", "type": "cell-based", "conditions": "Staphylococcus aureus"}, "VRSA10": {"test_system": "VRSA10", "assay": "MIC/MBC broth microdilution", "type": "cell-based", "conditions": "Staphylococcus aureus"}, "HaCaT cells": {"test_system": "HaCaT cells", "assay": "MTS cytotoxicity analysis against human keratinocytes", "type": "cell-based", "conditions": "MTS assay, tested at 8, 16, 32, 64 μg/mL"}, "J774 cells": {"test_system": "J774 cells", "assay": "MTS cytotoxicity analysis against murine macrophages", "type": "cell-based", "conditions": "MTS assay, tested at 8, 16, 32, 64 μg/mL"}, "[7]": {"test_system": "drug-resistant S. aureus clinical isolates", "assay": "Anti-MRSA activity over the panel of S. aureus clinical isolates", "type": "cell-based, Staphylococcus aureus", "conditions": "against both MRSA and VRSA"}, "MRSA USA400": {"test_system": "MRSA USA400", "assay": "Time-kill assay", "conditions": "4 × MIC, MRSA USA400, 37 °C, 24-hour incubation"}, "[8]": {"conditions": "pH 7.4, NADPH-Free CLint, without NADPH"}},
  "data": [
    {"smiles": "CCCCc1ccc(-c2nc(C)c(/C(C)=N/NC(=N)N)s2)cc1", "note": "[Compound 1a, reference compound]", "values": [
      {"measurement": "microsomal CLint", "setting": "[1]; [8]", "value": "< 9.6", "unit": "µL/min/mg"}
    ]},
    {"smiles": "Cc1onc(-c2ccccc2Cl)c1C(=O)N[C@@H]1C(=O)N2[C@@H]1SC(C)(C)[C@@H]2C(=O)O", "note": "[cloxacillin]", "values": [
      {"measurement": "MIC", "setting": "B. subtilis [2]", "value": 0.47, "unit": "µg/mL"}
    ]},
    {"smiles": "CN[C@H](CC(C)C)C(=O)N[C@H]1C(=O)N[C@@H](CC(N)=O)C(=O)N[C@H]2C(=O)N[C@H]3C(=O)N[C@H](C(=O)N[C@H](C(=O)O)c4cc(O)cc(O)c4-c4cc3ccc4O)[C@H](O)c3ccc(c(Cl)c3)Oc3cc2cc(c3O[C@@H]2O[C@H](CO)[C@@H](O)[C@H](O)[C@H]2O[C@H]2C[C@](C)(N)[C@H](O)[C@H](C)O2)Oc2ccc(cc2Cl)[C@H]1O", "note": "[Vancomycin, reference compound]", "values": [
      {"measurement": "reduction of the burden of MRSA USA300", "setting": "MRSA USA300", "value": "low reduction"},
      {"measurement": "peak of UDP-N-acetylmuramyl pentapeptide (accumulation)", "setting": "[3]", "value": "noticeable increase"},
      {"measurement": "reduction of MRSA CFU in infected macrophages", "setting": "[4]; 24 hours of treatment", "value": "not able to reduce"}
    ]},
    {"smiles": "Cc1onc(-c2ccccc2)c1C(=O)N[C@@H]1C(=O)N2[C@@H]1SC(C)(C)[C@@H]2C(=O)O", "note": "[oxacillin, reference compound]", "values": [
      {"measurement": "cell shape (BCP) in media containing MSM", "setting": "B. subtilis [5]", "value": "large bulges and misshapen cells"}
    ]},
    {"smiles": "CC(=O)NC[C@H]1CN(c2ccc(N3CCOCC3)c(F)c2)C(=O)O1", "note": "[Linezolid]", "values": [
      {"measurement": "MIC", "setting": "[6]", "value": 2, "unit": "µg/mL"},
      {"measurement": "MIC", "setting": "VRSA4", "value": 2, "unit": "µg/mL"},
      {"measurement": "MIC", "setting": "VRSA10", "value": 2, "unit": "µg/mL"}
    ]},
    {"smiles": "N[C@@H]1CONC1=O", "note": "[ᴅ-cycloserine]", "values": [
      {"measurement": "MIC", "setting": "B. subtilis [2]", "value": 37.5, "unit": "µg/mL"}
    ]},
    {"smiles": "Cc1nc(-c2ccc3ccccc3c2)sc1-c1cnc(NC(=N)N)s1", "note": "[Compound 4i, 1-(4′-Methyl-2′-(naphthalen-2-yl)-[5,5′-bithiazol]-2-yl)guanidine]", "values": [
      {"measurement": "concentration up to which not toxic", "setting": "HaCaT cells", "value": 32000, "unit": "ng/mL"},
      {"measurement": "concentration up to which non-toxic", "setting": "J774 cells", "value": 16000, "unit": "ng/mL"},
      {"measurement": "reduction of the burden of MRSA USA300", "setting": "MRSA USA300", "value": "approximately 30%"},
      {"measurement": "reduction of MRSA burden relative to lead compound 1c and vancomycin", "setting": "MRSA USA300; C. elegans, 20 μg/mL, 18 hours, same experimental conditions", "value": "three"},
      {"measurement": "peak of UDP-N-acetylmuramyl pentapeptide (accumulation)", "setting": "[3]", "value": "noticeable increase"},
      {"measurement": "effect on cells (BCP)", "setting": "B. subtilis [5]; 5 × MIC, two hours of exposure", "value": "lysed"},
      {"measurement": "cell shape (BCP) in media containing MSM", "setting": "B. subtilis [5]", "value": "misshapen and formed small bulges"},
      {"measurement": "microsomal CLint", "setting": "[1]; pH 7.4, NADPH-Dependent CLint, with NADPH", "value": 17.3, "unit": "µL/min/mg"},
      {"measurement": "microsomal CLint", "setting": "[1]; [8]", "value": "< 9.6", "unit": "µL/min/mg"},
      {"measurement": "MBC values relative to MIC values", "setting": "[7]", "value": "matched or were two-fold higher"},
      {"measurement": "time to completely eliminate MRSA cells", "setting": "MRSA USA400", "value": "four"},
      {"measurement": "reduction of MRSA CFU/mL in infected macrophages", "setting": "[4]; four hours of treatment", "value": "unable to reduce"}
    ]}
  ]
}
